Consider 4 compounds from US20210069083A1, “METHOD FOR IMPROVING SKIN WHITENING POWER OF A SKIN WHITENING AGENT” (Symrise AG, priority 2013, published 2021).

For this experiment, the system named is B16V mouse melanoma cells. As to the kind of experiment: Depigmentation effect on melanoma cell cultures (inhibition of pigmentation / melanin inhibition). Conditions: for IC50: Mus musculus, B16V cells, 0.3 mM tyrosine and 10 nM α-MSH, 96 h incubation, absorption at 400 nm. The class given is cell-based. The procedure:
B16V mouse melanoma cells are disseminated in a 96-well micro-titre plate in a concentration of 7.5×10^3 cells/well. After cultivation for 24 h at 37° C. and 5% CO2 in RPMI medium, enriched with 10% foetal calf serum, various concentrations of the test substances and 0.3 mM tyrosine and 10 nM α-MSH (α-melanocyte stimulating hormone) are added and incubated for a further 96 h. The maximum concentration of the test substances used corresponds to 0.1 times the value of the IC20 value of the cytotoxicity assay. Only tyrosine and α-MSH are added to the controls. After incubation, sodium hydroxide solution (final concentrations: 1 M) is added to the culture medium and the absorption (A) is measured after 3 h at 400 nm.
The inhibition of pigmentation in the presence of the test compounds was calculated using the following equation:
Inhibition of pigmentation (%)=100−[(Atest compound/Acontrol)×100]
wherein Atest compound=absorption of the wells with test substance and with cells Acontrol=absorption of the wells without test substance, but with cells
From the inhibition of pigmentation (%) in a series of dilutions of test compounds, the IC50 for each test compound is calculated. This is the concentration of a test compound at which pigmentation is inhibited by 50%. The results are compiled in Table 1:
Experimental procedure as described in Example 1. SymWhite® 377 stands for Phenylethyl resorcinol.
The Synergy Index (SI)^1 is calculated according to Kull's equation as follows: […]
with A: individual result of substance A B: individual result of substance B C: result of the mixture of A and B D: percentage of substance Ain the mixture E: percentage of substance B in the mixture ^1 The calculation of the synergy index (SI-value) was carried out on the basis of following literature: D. C. Steinberg, Cosmetics & Toiletries 2000, 115 (11), 59-62 and F. C. Kull et al., Applied Microbiology 1961, 9, 538-541.
In contrast to the given examples in the literature, in which reduced values for A, B and C (i.e. the minimal concentration of inhibition in antimicrobial tests) mean better activity and consequently SI values <1 document a synergistic effect, increasing values of the here analysed melanin inhibition mean better efficacy. According to Kull's equation the evidence for a synergistic effect results for SI values >1. In the experiments with Sclareolide and SyrnWhite® 377 the calculated SI values obviously exceed 1 (experiments 1 and 2). From this it follows that a composition of Sclareolide and SymWhite® 377 constitutes a potent synergistic combination of active ingredients.

One may read the IC50 as the concentration that gives 50% inhibition. Consider `O=c1cc(CO)occ1O` [Kojic acid, 5-hydroxy-2-hydroxymethyl-4-pyranone], for which the IC50 came out at 452 µM.
On to `CC(c1ccccc1)c1ccc(O)cc1O` (stereo not shown) [SymWhite ® 377, 4-(1-phenylethyl)1,3-dihydroxybenzene], for which the Melanin inhibition came to 59.8% (Ex. 1, Kull variable B, conc. 1.6 μm) and 55.9% (Ex. 2, Kull variable B, conc. 1.6 μm).
For `CC1(C)CCC[C@]2(C)C3CC(=O)O[C@]3(C)CC[C@@H]12` (stereo partly drawn) [Sclareolide, (3aR,5aS,9aS,9bR)-decahydro-3a,6,6,9a-tetramethyl-naphtha[2,1-b]furan-2(1H)-one], the IC50 was found to be 10.2 µM. Besides, the Melanin inhibition (Ex. 1, Kull variable A, conc. 3.2 μm) is listed as 50.0%. Also, under “Ex. 2, Kull variable A, conc. 3.2 μm”, the Melanin inhibition came out at 35.8%.
Take `OC[C@H]1O[C@@H](Oc2ccc(O)cc2)[C@H](O)[C@@H](O)[C@@H]1O` [beta-Arbutin]: the IC50 came out at 67 µM.
